Read-outs that look alike come from different tables or passages of the source.
How the values were obtained:
human NK2-receptor = biological target: T1, human NK2-receptor (Homo sapiens, UniProt P21452); test: Binding potency of the test substances to NK2-receptors in vitro ([3H]-SR 48968 displacement); design: expressed in transfected cells; host or cells: CHO cells (membrane preparation); details: human NK2-receptor in CHO cell membranes, [3H]-SR 48968 (saredutant), average of at least three measurements; for Ki: read-out: pKi, binding potency to NK2-receptors (converted)
T1 sequence (P21452 1-398): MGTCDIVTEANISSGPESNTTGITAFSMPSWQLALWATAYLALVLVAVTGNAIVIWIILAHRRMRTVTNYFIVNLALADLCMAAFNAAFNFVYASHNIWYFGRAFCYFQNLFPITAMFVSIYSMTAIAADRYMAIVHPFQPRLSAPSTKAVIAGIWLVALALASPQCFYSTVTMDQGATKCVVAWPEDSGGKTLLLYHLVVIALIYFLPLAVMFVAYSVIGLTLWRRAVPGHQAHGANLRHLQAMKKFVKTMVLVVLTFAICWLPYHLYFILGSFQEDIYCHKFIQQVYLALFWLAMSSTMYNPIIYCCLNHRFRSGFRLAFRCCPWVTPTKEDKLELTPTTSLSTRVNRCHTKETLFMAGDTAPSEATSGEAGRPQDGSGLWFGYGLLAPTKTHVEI
Procedure, shortened: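 Membranes from CHO cells stably expressing the receptor were incubated with [3H]-saredutant plus test compound, then filtered and counted by liquid scintillation. Nonspecific binding defined with 0.1 μmol/l unlabeled saredutant. IC50 from displacement converted to Ki via Cheng-Prusoff and reported as pKi, averaged over measurements.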

human NK3 receptor = biological target: T2, human NK3 receptor (Homo sapiens, UniProt P29371); test: Binding potency of the test substances to NK3-receptors in vitro ([3H]-SR 142801 displacement); design: expressed in transfected cells; host or cells: CHO cells (membrane preparation); details: human NK3-receptor in CHO cell membranes, [3H]-SR 142801 (osanetant), average of at least three measurements; for Ki: read-out: pKi, binding potency to NK3-receptors (converted)
T2 sequence (P29371 1-465): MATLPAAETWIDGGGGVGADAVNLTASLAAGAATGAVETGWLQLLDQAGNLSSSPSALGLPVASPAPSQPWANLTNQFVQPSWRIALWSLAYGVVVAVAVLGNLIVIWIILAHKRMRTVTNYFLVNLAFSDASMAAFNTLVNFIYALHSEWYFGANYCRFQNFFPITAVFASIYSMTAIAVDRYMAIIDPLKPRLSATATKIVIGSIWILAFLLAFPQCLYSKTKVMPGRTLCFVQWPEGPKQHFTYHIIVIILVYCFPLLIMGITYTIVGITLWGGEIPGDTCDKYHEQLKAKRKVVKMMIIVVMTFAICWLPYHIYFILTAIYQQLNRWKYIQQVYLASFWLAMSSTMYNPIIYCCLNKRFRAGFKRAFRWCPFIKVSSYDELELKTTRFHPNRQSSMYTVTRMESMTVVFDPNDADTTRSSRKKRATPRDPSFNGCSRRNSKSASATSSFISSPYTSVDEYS
Procedure, shortened: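 [3H]-osanetant displacement on membranes from CHO cells stably expressing the human receptor, with bound ligand separated by filtration and counted by scintillation. Nonspecific binding defined with 1 μmol/l unlabeled osanetant. IC50 converted to Ki by Cheng-Prusoff and reported as pKi, averaged over measurements.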

NK1-receptor = biological target: T3, NK1-receptor (Cavia porcellus, UniProt P30547); test: NK1-receptor-antagonistic effectiveness in vivo, NKA-induced early hypotension in anaesthetised guinea pigs; details: guinea pig; for ED50 iv after 1 min (cumulative), NK1 (early hypotension) / ED50 AUC1-180 min oral, NK1 (early hypotension): NKA 200 pmol/animal i.v.; for ED50 iv after 1 min (cumulative), NK1 (early hypotension): intravenous administration
T3 construct: from tissue; host or cells: whole animal (Pirbright-White guinea pigs), in vivo
From the text: 10. Determination of the NK1- and NK2-Receptor-Antagonistic Effectiveness of the Test Substances In Vivo
The NK1- and NK2-antagonistic activities of the test substances were investigated in anaesthetised guinea pigs in each case after intravenous (=i.v.) and oral (=p.o.) administration in vivo. With the present test model it is possible to detect both NK2-antagonistic effects in three different organ systems (respiratory tracts, colon and circulation) and NK1-antagonistic effects (rapid drop in blood pressure) in an animal simultaneously.
Pirbright-White guinea pigs of a body weight of 500-700 g were anaesthetised with ketamine/xylazine (67/13 mg/kg subcutaneously, initial dose, further doses administered as required). The animals were provided with an intravenous catheter in order to administer the substance and an intra-arterial catheter to measure the blood pressure. The animals were artificially ventilated via a tracheal cannula and the respiratory pressure was recorded by means of a pressure transducer. A balloon was introduced into the distal colon of the animals for manometric recording of colon motility by means of a pressure transducer. Blood pressure, heart rate, respiratory pressure and colonic pressure were measured continuously for each animal and plotted on a recorder and by means of a digital data-processing system. […] The second phase of delayed hypotension (=phase of maximum hypotension after 2-5 min.) on the other hand is mediated via NK2-receptors, since they can be blocked by specific NK2-receptor antagonists.
These ED50 values obtained from cumulative dose effect curves are plotted in Table 13.

[1] = iv, read-out: ED50 iv after 1 min (cumulative), NK1 (early hypotension)

T3 sequence (P30547 whole entry): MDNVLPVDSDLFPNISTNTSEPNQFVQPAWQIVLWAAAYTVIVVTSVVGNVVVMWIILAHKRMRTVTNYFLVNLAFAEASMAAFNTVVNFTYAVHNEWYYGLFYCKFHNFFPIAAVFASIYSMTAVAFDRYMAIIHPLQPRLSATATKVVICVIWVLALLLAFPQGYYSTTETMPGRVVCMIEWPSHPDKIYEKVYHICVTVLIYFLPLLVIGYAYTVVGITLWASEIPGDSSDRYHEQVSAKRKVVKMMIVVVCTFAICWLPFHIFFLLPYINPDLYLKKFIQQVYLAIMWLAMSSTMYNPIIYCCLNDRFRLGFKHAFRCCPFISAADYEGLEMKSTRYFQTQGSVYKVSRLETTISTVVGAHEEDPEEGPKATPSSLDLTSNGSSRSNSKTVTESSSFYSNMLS

Ki (human NK2-receptor)	Ki (human NK3 receptor)	ED50 (NK1-receptor; [1])	pKi, binding potency to NK2-receptors (human NK2-receptor)	pKi, binding potency to NK3-receptors (human NK3 receptor)	ED50 iv after 1 min (cumulative), NK1 (early hypotension) (NK1-receptor)	Compound	other results
–	–	–	9.0	7.4	–	CN(C)C(=O)C1(N2CCCCC2)CCN(CC[C@H](CN(C)C(=O)c2ccc(F)cc2F)c2ccc(Cl)c(Cl)c2)CC1 [compound 13]	–
–	–	–	9.1	–	>1.462 µmol/kg	CN(C)C(=O)C1(N2CCCCC2)CCN(CC[C@H](CN(C)C(=O)c2ccc(F)c(F)c2)c2ccc(Cl)c(Cl)c2)CC1 [compound 14]	–
–	–	–	9.6	8.2	>1.462 µmol/kg	CN(C)C(=O)C1(N2CCCCC2)CCN(CC[C@H](CN(C)C(=O)c2ccc(F)cc2)c2ccc(Cl)c(Cl)c2)CC1 [compound 4]	ED50 AUC1-180 min oral, NK1 (early hypotension) (NK1-receptor; oral administration): >10 µmol/kg
–	–	–	9.2	–	>1.462 µmol/kg	CN(C)C(=O)C1(N2CCCCC2)CCN(CC[C@H](CN(C)C(=O)c2cc(F)ccc2F)c2ccc(Cl)c(Cl)c2)CC1 [compound 15]	–

Continued, compound first:

Compound	Ki (human NK2-receptor)	Ki (human NK3 receptor)	ED50 (NK1-receptor; [1])	pKi, binding potency to NK2-receptors (human NK2-receptor)	pKi, binding potency to NK3-receptors (human NK3 receptor)	ED50 iv after 1 min (cumulative), NK1 (early hypotension) (NK1-receptor)	other results
CN(C)C(=O)C1(N2CCCCC2)CCN(CCC(CN(C)C(=O)c2cccnc2)c2ccc(Cl)c(Cl)c2)CC1 (centres unmarked) [compound 19]	3.16 nM	31.6 nM	> 1.46 µmol/kg	–	–	–	–
CN(C)C(=O)C1(N2CCCCC2)CCN(CC[C@H](CN(C)C(=O)c2ccccc2)c2ccc(Cl)c(Cl)c2)CC1 [compound 1]	0.158 nM	2.51 nM	> 0.46 µmol/kg	–	–	–	ED50 (NK1-receptor; read-out: ED50 AUC1-180 min oral, NK1 (early hypotension)): > 3.2 µmol/kg
CN(C)C(=O)C1(N2CCCCC2)CCN(CC[C@H](CN(C)C(=O)C2CCCCC2)c2ccc(Cl)c(Cl)c2)CC1 [compound 3]	–	–	–	8.8	8.2	>1.462 µmol/kg	–
CN(C)C(=O)C1(N2CCCCC2)CCN(CC[C@H](CN(C)C(=O)c2cc(C#N)c3ccccc3c2)c2ccc(Cl)c(Cl)c2)CC1 [compound 11]	–	–	–	8.7	7.9	0.433 µmol/kg	ED50 AUC1-180 min oral, NK1 (early hypotension) (NK1-receptor; oral administration): 23.027 µmol/kg; NK-1-receptor-antagonistic activity on the early hypotension, in words (NK1-receptor; cumulative administration i.v., 1 min after administration): marked NK-1-receptor-antagonistic activity; oral activity as NK1 receptor antagonist, in words (NK1-receptor; oral administration): active as NK1 receptor antagonists
CN(C)C(=O)C1(N2CCCCC2)CCN(CC[C@H](CN(C)C(=O)c2ccc(O)cc2)c2ccc(Cl)c(Cl)c2)CC1 [compound 6, 1′-{(3S)-3-(3,4-dichlorophenyl)-4-[(4-hydroxybenzoyl)-(methyl)amino]butyl}-N,N-dimethyl-1,4′-bipiperidine-4′-carboxamide]	0.631 nM	2 nM	> 1.46 µmol/kg	–	–	–	–
CN(C)C(=O)C1(N2CCCCC2)CCN(CCC(CN(C)C(=O)c2ccc(Cl)nc2)c2ccc(Cl)c(Cl)c2)CC1 (centres unmarked) [compound 18]	1.26 nM	5.01 nM	> 1.46 µmol/kg	–	–	–	–
